Assay results taken from PubChem BioAssay AID248 (DTP/NCI, 2004).
Inconclusive results and toxic doses are left out. Rule as the data show it: active = T/C of 150% or more; inactive = T/C below 125%.

Tested on: L1210 leukemia ip in BDF1 mice, survival T/C
Test: NCI In Vivo Anticancer Drug Screen. Data for tumor model L1210 Leukemia (intraperitoneal) in B6D2F1 (BDF1) mice
Settings: endpoint: mean survival time, higher = longer survival
Procedure, shortened: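 Ratio derived from survival: compound-dosed mice over vehicle-dosed mice, all bearing a transplantable tumor.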

[1] = dose: 100.0 mg/kg/injection, schedule: Q01DX001 (ip), vehicle: carboxymethylcellulose (CMC)
[2] = dose: 200.0 mg/kg/injection, schedule: Q01DX001 (ip), vehicle: carboxymethylcellulose (CMC)
[3] = dose: 400.0 mg/kg/injection, schedule: Q01DX001 (ip), vehicle: carboxymethylcellulose (CMC)
[4] = dose: 100.0 mg/kg/injection, schedule: Q04DX002 (ip), vehicle: Klucel (hydroxypropylcellulose) (HPC)
[5] = dose: 200.0 mg/kg/injection, schedule: Q04DX002 (ip), vehicle: Klucel (hydroxypropylcellulose) (HPC)
[6] = dose: 400.0 mg/kg/injection, schedule: Q04DX002 (ip), vehicle: Klucel (hydroxypropylcellulose) (HPC)
[7] = dose: 100.0 mg/kg/injection, schedule: Q01DX009 (ip), vehicle: Klucel (hydroxypropylcellulose) (HPC)
[8] = dose: 200.0 mg/kg/injection, schedule: Q01DX009 (ip), vehicle: Klucel (hydroxypropylcellulose) (HPC)
[9] = dose: 400.0 mg/kg/injection, schedule: Q01DX009 (ip), vehicle: Klucel (hydroxypropylcellulose) (HPC)
[10] = dose: 50.0 mg/kg/injection, schedule: Q04DX002 (ip), vehicle: Klucel (hydroxypropylcellulose) (HPC)
[11] = dose: 100.0 mg/kg/injection, schedule: Q01DX009 (ip), vehicle: saline with Tween-80
[12] = dose: 200.0 mg/kg/injection, schedule: Q01DX009 (ip), vehicle: saline with Tween-80
[13] = dose: 400.0 mg/kg/injection, schedule: Q01DX009 (ip), vehicle: saline with Tween-80

Measured: T/C

O=C(NCCCCNC(=O)Nc1cccc(C2=NCCN2)c1)Nc1cccc(C2=NCCN2)c1
inactive: dose: 12.0 mg/kg/injection, schedule: Q01DX Z (ip), vehicle: carboxymethylcellulose (CMC) 114 % of control | dose: 23.0 mg/kg/injection, schedule: Q01DX Z (ip), vehicle: carboxymethylcellulose (CMC) 100 % of control | dose: 46.0 mg/kg/injection, schedule: Q01DX Z (ip), vehicle: carboxymethylcellulose (CMC) 108 % of control

CC(C)(CSCC(C)(C)C(=O)O)C(=O)O
inactive: dose: 100.0 mg/kg/injection, schedule: Q04DX003 (ip), vehicle: Klucel (hydroxypropylcellulose) (HPC) 104 % of control | dose: 200.0 mg/kg/injection, schedule: Q04DX003 (ip), vehicle: Klucel (hydroxypropylcellulose) (HPC) 94 % of control | dose: 400.0 mg/kg/injection, schedule: Q04DX003 (ip), vehicle: Klucel (hydroxypropylcellulose) (HPC) 91 % of control

CCOC(=O)C(CCC(c1ccc(OC)cc1)c1ccc(OC)cc1)C(=O)OCC
inactive: dose: 100.0 mg/kg/injection, schedule: Q01DX001 (ip), vehicle: saline 98 % of control | dose: 200.0 mg/kg/injection, schedule: Q01DX001 (ip), vehicle: saline 93 % of control | dose: 400.0 mg/kg/injection, schedule: Q01DX001 (ip), vehicle: saline 94 % of control

Cc1sc(Cc2ccccc2)nc1-c1ccc(N=Cc2ccc(N(CCCl)CCCl)cc2)cc1
inactive: [1] 104 % of control | [2] 98 % of control | [3] 95 % of control

CS(=O)(=O)OCCN(CCOS(C)(=O)=O)c1ccc(C(=O)O)cc1
inactive: dose: 42.0 mg/kg/injection, schedule: Q01DX015 (ip), vehicle: other 108 % of control | dose: 50.0 mg/kg/injection, schedule: Q01DX001 (ip), vehicle: other 115 % of control | dose: 66.0 mg/kg/injection, schedule: Q01DX015 (ip), vehicle: saline 120 % of control | dose: 72.0 mg/kg/injection, schedule: Q01DX015 (ip), vehicle: other 121 % of control | dose: 100.0 mg/kg/injection, schedule: Q01DX001 (ip), vehicle: other 115 % of control | dose: 100.0 mg/kg/injection, schedule: Q01DX015 (ip), vehicle: saline 122 % of control | dose: 120.0 mg/kg/injection, schedule: Q01DX015 (ip), vehicle: other 116 % of control | dose: 150.0 mg/kg/injection, schedule: Q01DX015 (ip), vehicle: saline 117 % of control | dose: 177.0 mg/kg/injection, schedule: Q01DX001 (ip), vehicle: other 118 % of control | dose: 177.0 mg/kg/injection, schedule: Q01DX001 (ip), vehicle: saline 117 % of control | dose: 177.0 mg/kg/injection, schedule: Q01DX015 (ip), vehicle: other 93 % of control | dose: 220.0 mg/kg/injection, schedule: Q01DX015 (ip), vehicle: saline 86 % of control | dose: 267.0 mg/kg/injection, schedule: Q01DX001 (ip), vehicle: other 118 % of control | dose: 267.0 mg/kg/injection, schedule: Q01DX001 (ip), vehicle: saline 110 % of control

COc1ccc([N+](=O)[O-])cc1NS(=O)(=O)c1ccc2ccccc2c1
inactive: [4] 104 % of control | [5] 100 % of control | [6] 115 % of control

Nc1ccc2c(c1)/C(=N/O)c1cc(Cl)ccc1-2
inactive: [1] 109 % of control | [2] 103 % of control | [3] 100 % of control

COc1cccc(/C(C)=C2\SC(=S)NC2=O)c1
inactive: [1] 100 % of control | [2] 94 % of control

CC(=O)c1ccc(NCc2cnc3nc(N)nc(N)c3n2)cc1
inactive: dose: 20.0 mg/kg/injection, schedule: Q01DX009 (ip), vehicle: Klucel (hydroxypropylcellulose) (HPC) 102 % of control | dose: 40.0 mg/kg/injection, schedule: Q01DX009 (ip), vehicle: Klucel (hydroxypropylcellulose) (HPC) 105 % of control | dose: 80.0 mg/kg/injection, schedule: Q01DX009 (ip), vehicle: Klucel (hydroxypropylcellulose) (HPC) 105 % of control

CCCCCCCCCCCCCCCCCC(=O)c1ccccc1
inactive: [7] 105 % of control | [8] 105 % of control | [9] 100 % of control

CC(=O)C(CCC#N)(CCC#N)c1ccccc1
inactive: [10] 121 % of control | [4] 101 % of control

[Cl][Bi]([Cl])([c]1ccccc1)([c]1ccccc1)[c]1ccccc1
inactive: [4] 98 % of control | [5] 92 % of control | [6] 98 % of control

O=C(CNc1ccccc1)NCc1ccccc1
inactive: [11] 92 % of control | [12] 95 % of control | [13] 97 % of control

Cc1ccc(S(=O)(=O)Nc2ccc(Br)cc2)cc1
inactive: [1] 105 % of control | [2] 105 % of control | [3] 107 % of control

COc1cc(NC(=O)Nc2cccc(C(C)=O)c2)c(OC)cc1Cl
inactive: [7] 116 % of control | [8] 110 % of control | [9] 110 % of control

COc1cc(N(CCC#N)CCC#N)nc(OC)n1
inactive: dose: 50.0 mg/kg/injection, schedule: Q01DX009 (ip), vehicle: saline with Tween-80 96 % of control | [11] 92 % of control | [12] 92 % of control

C1CCC2(CC1)NN2
inactive: dose: 50.0 mg/kg/injection, schedule: Q01DX001 (ip), vehicle: water 101 % of control | dose: 100.0 mg/kg/injection, schedule: Q01DX001 (ip), vehicle: water 104 % of control | dose: 200.0 mg/kg/injection, schedule: Q01DX001 (ip), vehicle: water 98 % of control | dose: 400.0 mg/kg/injection, schedule: Q01DX001 (ip), vehicle: water 103 % of control

NC(C(=O)O)C1SCCS1 (stereo unspecified)
inactive: [1] 102 % of control | [2] 102 % of control | [3] 98 % of control

Cc1ccc(N)c(F)c1
inactive: dose: 100.0 mg/kg/injection, schedule: Q04DX002 (sc), vehicle: olive oil, sesame oil, peanut oil 93 % of control | dose: 200.0 mg/kg/injection, schedule: Q04DX002 (sc), vehicle: olive oil, sesame oil, peanut oil 98 % of control | dose: 400.0 mg/kg/injection, schedule: Q04DX002 (sc), vehicle: olive oil, sesame oil, peanut oil 104 % of control

O=C(Nc1cccc(C(=O)O)c1)Nc1ccccc1F
inactive: dose: 50.0 mg/kg/injection, schedule: Q01DX009 (ip), vehicle: Klucel (hydroxypropylcellulose) (HPC) 93 % of control | [7] 107 % of control | [8] 93 % of control

CCCCCCCCCCC(=O)N1CCCCCC1
inactive: [10] 100 % of control | [4] 100 % of control | [5] 95 % of control

COC(=O)C(C)CC(C)(C)[N+](=O)[O-] (stereo unspecified)
inactive: [11] 97 % of control | [12] 103 % of control | [13] 97 % of control

Cc1[nH]nc(C(F)(F)F)c1N=NN(C)C
inactive: dose: 175.0 mg/kg/injection, schedule: Q01DX009 (ip), vehicle: saline 90 % of control

O=C1COC(=O)c2ccccc2O1
inactive: dose: 100.0 mg/kg/injection, schedule: Q04DX003 (ip), vehicle: saline with Tween-80 101 % of control | dose: 200.0 mg/kg/injection, schedule: Q04DX003 (ip), vehicle: saline with Tween-80 97 % of control | dose: 400.0 mg/kg/injection, schedule: Q04DX003 (ip), vehicle: saline with Tween-80 93 % of control

O=P(O)(N(CCCl)CCCl)N1CCN(Cc2ccccc2)CC1
inactive: dose: 10.0 mg/kg/injection, schedule: Q01DX Z (ip), vehicle: other 95 % of control | dose: 30.0 mg/kg/injection, schedule: Q01DX Z (ip), vehicle: other 105 % of control | dose: 100.0 mg/kg/injection, schedule: Q01DX Z (ip), vehicle: other 108 % of control

CN(C)CCCN1Cc2ccccc2Cc2ccccc21
inactive: dose: 6.25 mg/kg/injection, schedule: Q01DX009 (ip), vehicle: saline 106 % of control | dose: 12.5 mg/kg/injection, schedule: Q01DX009 (ip), vehicle: saline 88 % of control | dose: 25.0 mg/kg/injection, schedule: Q01DX009 (ip), vehicle: saline 97 % of control | dose: 25.0 mg/kg/injection, schedule: Q04DX003 (ip), vehicle: saline 97 % of control | dose: 50.0 mg/kg/injection, schedule: Q01DX009 (ip), vehicle: saline 104 % of control | dose: 50.0 mg/kg/injection, schedule: Q04DX003 (ip), vehicle: saline 108 % of control | dose: 100.0 mg/kg/injection, schedule: Q01DX009 (ip), vehicle: saline 100 % of control | dose: 100.0 mg/kg/injection, schedule: Q04DX003 (ip), vehicle: saline 108 % of control
